The source of these data is ChEMBL document CHEMBL4814026, “Discovery of novel reversible monoacylglycerol lipase inhibitors via docking-based virtual screening” (Bioorg Med Chem Lett, 2021).

In test [1] the target is T1, Monoglyceride lipase (Homo sapiens, UniProt Q99685).
T1 sequence (Q99685 whole entry): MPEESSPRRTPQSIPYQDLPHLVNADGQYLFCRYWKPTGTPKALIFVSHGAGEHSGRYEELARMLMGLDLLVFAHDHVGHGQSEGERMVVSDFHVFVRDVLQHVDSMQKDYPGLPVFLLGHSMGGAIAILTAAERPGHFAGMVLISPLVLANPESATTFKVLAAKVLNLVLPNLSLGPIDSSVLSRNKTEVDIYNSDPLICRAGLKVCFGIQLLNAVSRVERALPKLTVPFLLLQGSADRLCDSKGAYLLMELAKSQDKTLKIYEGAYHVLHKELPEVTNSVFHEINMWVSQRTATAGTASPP
Kind of test: Inhibition of MAGL (unknown origin).

In test [2] the target is T2, Monoglyceride lipase (Rattus norvegicus, UniProt Q8R431).
T2 sequence (Q8R431 whole entry): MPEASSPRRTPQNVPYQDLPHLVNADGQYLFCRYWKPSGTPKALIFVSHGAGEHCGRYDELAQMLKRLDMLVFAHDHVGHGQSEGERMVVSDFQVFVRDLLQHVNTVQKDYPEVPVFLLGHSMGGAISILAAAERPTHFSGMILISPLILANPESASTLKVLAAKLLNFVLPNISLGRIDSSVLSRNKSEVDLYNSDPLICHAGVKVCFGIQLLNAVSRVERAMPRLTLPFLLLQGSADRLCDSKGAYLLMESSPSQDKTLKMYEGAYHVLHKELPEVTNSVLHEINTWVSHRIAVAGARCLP
Kind of test: Inhibition of recombinant rat MAGL by LC-MS analysis.

Test [3] deals with T1, Monoglyceride lipase. Nature of the test: Binding affinity to MAGL (unknown origin) by SPR analysis. (SPR reads the build-up and loss of mass on a sensor chip optically.)
Test [4] concerns the target T3, Monoglyceride lipase (Homo sapiens) (UniProt Q99685).
T3 sequence (whole entry): T1 sequence (Q99685 whole entry)
Nature of the test: Reversible inhibition of MAGL (unknown origin).

Test [5] deals with T4, Monoglyceride lipase (Mus musculus) (UniProt O35678).
T4 sequence (whole entry): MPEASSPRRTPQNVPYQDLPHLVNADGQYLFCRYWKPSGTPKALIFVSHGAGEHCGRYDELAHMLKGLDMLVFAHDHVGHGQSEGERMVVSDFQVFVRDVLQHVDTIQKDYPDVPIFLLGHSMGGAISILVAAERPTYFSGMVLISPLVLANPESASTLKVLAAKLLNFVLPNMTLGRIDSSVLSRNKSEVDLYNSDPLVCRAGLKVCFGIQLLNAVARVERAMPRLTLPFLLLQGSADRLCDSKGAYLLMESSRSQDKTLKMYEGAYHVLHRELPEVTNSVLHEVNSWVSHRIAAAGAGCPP
Kind of test: Inhibition of MAGL in mouse RAW264.7 cells assessed as increase in 2-AG level at 30 uM. The test is classed as cell-based.

The subject of test [6] is RAW264.7. Nature of the test: Antiinflammatory activity in mouse RAW264.7 cells assessed as reduction in LPS-induced IL-6 mRNA expression measured after 24 hrs by RT-PCR analysis. The test is classed as functional, cell-based. Conditions: dose 20-40 µM.
For test [7], the system named is RAW264.7. Kind of test: Antiinflammatory activity in mouse RAW264.7 cells assessed as reduction in LPS-induced IL-1beta mRNA expression measured after 24 hrs by RT-PCR analysis. The format is functional, cell-based. To be noted: dose 20-40 µM.
Test [8] concerns RAW264.7. Nature of the test: Antiinflammatory activity in mouse RAW264.7 cells assessed as reduction in LPS-induced CCL-2 mRNA expression measured after 24 hrs by RT-PCR analysis. The test is classed as functional, cell-based. To be noted: dose 20-40 µM.
For test [9], the target named is T3, Monoglyceride lipase (Homo sapiens). Nature of the test: Inhibition of MAGL (unknown origin) in presence of DTT.

Broadly, the IC50 is the point on the concentration scale where inhibition reaches its midpoint. One may read the Kd as the free concentration of one partner at which half of the binding sites on the other are occupied at equilibrium, for simple one-to-one binding. Low values mean a tighter complex, high ones a looser complex.

Molecules are shown by their SMILES. Activity calls are given as the source filed them. The calls are words filed in the database; no cut-off is given here.

As for `O=C(C1CCCN(c2nc3ncccc3s2)C1)N1CCN(Cc2ccc3c(c2)OCO3)CC1` (configuration not stated), the IC50 on Monoglyceride lipase [1] is greater than 33300 nM.

In the case of `O=C(C1CCN(c2nc3ncccc3s2)CC1)N1CCN(Cc2ccc3c(c2)OCO3)CC1`, the IC50 at Monoglyceride lipase [1] was greater than 33300 nM.

With `COc1cc(N2CCN(C(=O)c3ccc4nc(N5CCC(C)CC5)sc4c3)CC2)cc(OC)c1OC`, the concentration for half-maximal inhibition (IC50) on Monoglyceride lipase [1] is greater than 33300 nM.

For the compound `COC(=O)[C@]1(C)CC[C@]2(C)CC[C@]3(C)C4=CC=C5C(=CC(=O)C(O)=C5C)[C@]4(C)CC[C@@]3(C)[C@@H]2C1` [PRISTIMERIN], the IC50 on Monoglyceride lipase [2] turned out to be 93 nM.

For the compound `COc1cccc(N2CCN(C(=O)c3ccc4nc(N5CCC(C)CC5)sc4c3)CC2)c1`, the IC50 against Monoglyceride lipase [1] worked out at 6580 nM.

Regarding `CC(C)=CCC[C@@H](C)[C@@H]1CC[C@]2(C)C3=C(CC[C@@]12C)[C@@]1(C)CC[C@H](O)C(C)(C)[C@@H]1CC3` [EUPHOL], on Monoglyceride lipase [2], the IC50 was found to be 315 nM.

Regarding `Cc1ccc(Cl)cc1N1CCN(C(=O)c2ccc3nc(N4CCC(C)CC4)sc3c2)CC1`, half-maximal inhibition against Monoglyceride lipase [1] (IC50) required 5800 nM.

`CC1CCN(c2nc3ccc(C(=O)N4CCN(Cc5ccccc5)CC4)cc3s2)CC1` returned an IC50 against Monoglyceride lipase [1] of 2870 nM.

Consider `O=C(c1ccc2nc(N3CCCCC3)sc2c1)N1CCN(c2ccccn2)CC1`, for which the IC50 on Monoglyceride lipase [1] is greater than 33300 nM.

`COc1ccc(N2CCN(C(=O)c3ccc4nc(N5CCC(C)CC5)sc4c3)CC2)cc1` had an IC50 against Monoglyceride lipase [1] of 2840 nM. Moreover, binding on Monoglyceride lipase [3] was put at a Kd of 710 nM. Also, the inhibition entry in [4], in test [5] and in [9] was “Active” in each case. Also, the Activity entry with RAW264.7 [6], in the test on RAW264.7 [7] and in the test on RAW264.7 [8] was “Dose-Dependent Effect” each time.
